Assay results taken from PubChem BioAssay (NCI).
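Interpolation was linear, between the two tested concentrations surrounding the appropriate level; five concentrations were tested over 48 hours in 96-well plates. GI50 marks 50% less growth. TGI: total growth inhibition.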

Experiments:
Test in all cases: NCI-60 cell line screen, 48 h
[1] = system: SR leukemia
[2] = system: HCC-2998 colon
[3] = system: HCT-116 colon
[4] = system: MALME-3M melanoma
[5] = system: BT-549 breast
[6] = system: UACC-257 melanoma
[7] = system: NCI-H522 lung
[8] = system: HCT-15 colon
[9] = system: MDA-MB-231 breast
[10] = system: SNB-78 CNS
[11] = system: DLD-1 colon
[12] = system: KM20L2 colon
[13] = system: DMS 273 small cell lung
[14] = system: DMS 114 small cell lung
[15] = system: M19-MEL melanoma
[16] = system: HOP-18 NSCLC

Structure (SMILES) | TGI [1] | TGI [2] | TGI [3] | TGI [4] | TGI [5] | TGI [6] | TGI [7] | TGI [8] | TGI [9] | TGI [10] | TGI [11] | TGI [12] | TGI [13] | GI50 [3] | TGI [14] | TGI [15] | TGI [16]
O=C(O)Cc1ccc(N2N=C(c3ccccc3)CC2=O)cc1 | > 100 µM | > 100 µM | > 100 µM | > 100 µM | > 100 µM | > 100 µM | > 100 µM | > 100 µM | > 100 µM |  |  |  |  |  |  |  | 
Nc1nc2c(ncn2CCOC(c2ccccc2)P(=O)(O)O)c(=O)[nH]1 (configuration not stated) | > 100 µM | > 100 µM | > 100 µM | > 100 µM |  | > 100 µM | > 100 µM | > 100 µM |  | > 100 µM | > 100 µM | > 100 µM | > 100 µM |  |  |  | 
N#CC1C(=O)Nc2sc(C(=O)c3ccc(Br)cc3)c(N)c2C12CCCCC2 (configuration not stated) | > 100 µM | 57.7 µM | > 100 µM | 84.2 µM | > 100 µM | > 100 µM | 78.8 µM | > 100 µM | 67.7 µM |  |  |  |  |  |  |  | 
COc1ccc(-c2cc(-c3ccc(Nc4ccnc5cc(C(F)(F)F)ccc45)cc3)[nH]c(=O)c2C#N)c2ccccc12 | > 48.9 µM | > 100 µM | > 100 µM | > 63.2 µM | > 100 µM | > 100 µM | > 100 µM | > 100 µM | > 59.8 µM |  |  |  |  |  |  |  | 
CCOC(=O)CCC(NC(=O)c1ccc(CNc2nc3cc(N)cc(N)c3nc2-c2ccccc2)cc1)C(=O)OCC (configuration not stated) | 23.7 µM | > 100 µM | > 100 µM | 35.3 µM | > 100 µM | 39.1 µM | > 100 µM | > 100 µM | > 68.1 µM |  |  |  |  |  |  |  | 
Cc1cc2c(cc1O)CC[C@@H]1[C@@H]2CC[C@]2(C)[C@@H](O)CC[C@@H]12 | 5.5 µM | 24.1 µM | 13.4 µM | 19.4 µM | 20.1 µM | 42.5 µM | 23.4 µM | 16.4 µM | 21.8 µM |  |  |  |  | 3.63 µM |  |  | 
COC(=O)C1OC(O[C@H]2CC[C@]3(C)[C@H]4CC=C5[C@@H]6CC(C)(C)CC[C@]6(C(=O)OC)[C@H](O)C[C@@]5(C)[C@]4(C)CC[C@H]3C2(C)C)C(O)C(O)C1O (some centres not stated) | 15.9 µM | 8.64 µM | 17 µM | 25.4 µM | 30.4 µM | 29.1 µM | 3.06 µM | 22.2 µM | 21.8 µM |  |  |  |  |  |  |  | 
COC(=O)c1ccc2n1C1CC3CC(CC2C3)C1 | > 100 µM | > 100 µM | > 100 µM | > 100 µM | > 100 µM | > 100 µM | > 100 µM | > 100 µM | > 100 µM |  |  |  |  |  |  |  | 
C[C@@]12CC[C@H]3[C@@H]4CCC(=O)N[C@@]4(C)CC[C@@H]3[C@@]1(C)CC[C@H](OC(=O)Cc1ccc(N(CCCl)CCCl)cc1)C2 |  | 31.2 µM | 29.9 µM | 36.1 µM |  | 55.8 µM | 34.4 µM | 36.1 µM |  | 39.2 µM | 47.1 µM | 32.7 µM | 30.3 µM |  | 28.8 µM | 32.8 µM | 34 µM
CCSc1nc2sc(C)c(C)c2c(=O)n1-c1ccc(C(=O)O)cc1 | > 100 µM | > 100 µM | 74.3 µM | > 100 µM |  | > 100 µM | 76.3 µM | > 100 µM |  | > 100 µM | > 100 µM | > 100 µM |  |  | > 100 µM | > 100 µM | 48.6 µM
CC1=C/C(=N/N2C(=O)/C(=C/c3ccc(Cl)cc3)N=C2c2ccccc2)CC(C)(C)C1 | > 100 µM | > 100 µM | > 100 µM | > 100 µM | > 100 µM | > 100 µM | > 100 µM | > 100 µM | > 100 µM |  |  |  |  |  |  |  | 
Cc1cc(Cc2cc(C)c(NC(=O)C(=O)C3C(=O)NC(=S)NC3=O)c(C(C)C)c2)cc(C(C)C)c1NC(=O)C(=O)C1C(=O)NC(=S)NC1=O | > 100 µM | > 100 µM | > 100 µM | > 100 µM |  | > 100 µM | > 100 µM | > 100 µM |  | > 100 µM | > 100 µM | > 100 µM | > 100 µM |  | > 100 µM | > 100 µM | > 100 µM
COC(=O)C1=NN2c3ccccc3C(=O)OCCC2C1 (configuration not stated) | > 100 µM | > 100 µM | > 100 µM | > 100 µM | > 100 µM | > 100 µM | > 100 µM | > 100 µM | > 100 µM |  |  |  |  |  |  |  | 
O=C(O)c1c(CC(Cc2ccc3c(c2)CCCC3)C(=O)O)ccc2c1CCCC2 (configuration not stated) | > 100 µM | > 100 µM | > 100 µM | > 100 µM | > 100 µM | > 100 µM | > 100 µM | > 100 µM | > 100 µM |  |  |  |  |  |  |  | 
CN(C)CCNCc1c2ccccc2c(CNCCN(C)C)c2ccccc12 |  | 23.8 µM | > 90.1 µM | 35.4 µM |  | 32.5 µM | > 100 µM | > 100 µM |  | 98.4 µM | > 100 µM | 26 µM | > 100 µM |  | > 70.1 µM | > 57.1 µM | > 100 µM
CN(C)C(=O)CC(C(=O)O)c1c[nH]c2ccccc12 (configuration not stated) | > 100 µM | > 100 µM | > 100 µM | > 100 µM |  | > 100 µM | > 100 µM | > 100 µM |  |  | > 100 µM | > 100 µM | > 100 µM |  | > 100 µM | > 100 µM | 
